Laboratory results taken from article PMC4844309, “Identification of a Bioactive Compound against Adult T-cell Leukaemia from Bitter Gourd Seeds” (Plants, 2013).
Where two headings read alike, the source gives them in different places.

Columns and labels:
[1] = tested on: phytohemagglutinin-activated human peripheral blood mononuclear cells (PBMC); test: cells; details: read-out: IC50 (inhibition of PBMC proliferation)
Protocol: (§1) ED cells were kindly provided by Dr. M. Maeda (Kyoto University, Kyoto, Japan) and Su9T01 cells were kindly provided by Dr. N. Arima (Kagoshima University, Kagoshima, Japan). The test compounds were dissolved in dimethyl sulfoxide and subjected to assay screening. The method of ATL assay is described in a previous report. IC50 calculation was some curve fitted onto the determined proliferation inhibition points.

[2] = tested on: ED cells; test: ATL cell proliferation assay (WST-8), ED cells; format: cell-based, human; details: read-out: IC50 (inhibition of cell proliferation), ED
Protocol: as §1

[3] = tested on: Su9T01 cells; test: ATL cell proliferation assay (WST-8), Su9T01 cells; format: cell-based, human; details: read-out: IC50 (inhibition of cell proliferation), Su9T01
Protocol: as §1

[4] = tested on: HL-60 cells; set-up: method as in PMID 22654956, PMID 18959405; details: human acute myelogenous leukemia cells; cited from earlier work
[5] = Homo sapiens, ED cells, 72 h incubation in RPMI-1640, WST-8 assay
[6] = Homo sapiens, Su9T01 cells, 72 h incubation in RPMI-1640, WST-8 assay
[7] = ED cells, 72 h incubation in RPMI-1640, WST-8 assay
[8] = Su9T01 cells, 72 h incubation in RPMI-1640, WST-8 assay

Compound: CCCC/C=C/C=C/C=C\CCCCCCCC(=O)O [α-ESA, α-Eleostearic acid]
- IC50 [1]: 31 µM
- IC50 ([2]; Homo sapiens, 72 h): 8.9 µM
- IC50 ([3]; Homo sapiens, 72 h): 29.3 µM
- Anti-leukemic potential in HL-60 cells [4]: anti-leukemic potential

Compound: CCCCC/C=C\C/C=C\C/C=C\CCCCC(=O)O [γ-linolenic acid, γ-Linolenic acid]
- IC50 [2, 5]: 61.3 µM
- IC50 [3, 6]: 174 µM

Compound: CC/C=C\C/C=C\C/C=C\CCCCCCCC(=O)O [α-linolenic acid]
- IC50 [2, 7]: 130 µM
- IC50 [3, 8]: 167 µM

Compound: CCCCC/C=C\C/C=C\CCCCCCCC(=O)O [linoleic acid]
- IC50 [2, 5]: 101 µM
- IC50 [3, 6]: 180 µM

Compound: Epigallocatechin-3-gallate [EGCG]
- IC50 [2, 7]: 153 µM
- IC50 [3, 8]: 166 µM

Compound: CCCCCCCCCCCCCCCCCC(=O)O [stearic acid, Stearic acid]
- IC50 [3, 6]: > 500 µM

Compound: CCCCCCCC/C=C/CCCCCCCC(=O)O [elaidic acid]
- IC50 ([2]; Homo sapiens, 72 h): > 500 µM
- IC50 ([3]; Homo sapiens, 72 h): > 500 µM
